Measured values: patent US4345938A, “Herbicidal 2-haloacetanilides” (Monsanto Company, priority 1980, dated 1982)
Read-outs that look alike come from different tables or passages of the source.

Tests used:
Type in all cases: in vivo
[1] = test system: Rice; assay: Field transplant rice test, applied 9 DAT, rice injury; conditions: Oryza sativa, 216 h, read-out: Percent Inhibition, Rice; for inhibition at 375 g/ha: 0.375 Kg/Ha; for inhibition at 750 g/ha: 0.75 Kg/Ha; for inhibition at 1500 g/ha: 1.5 Kg/Ha; for inhibition at 3000 g/ha: 3.0 Kg/Ha
Protocol: (§1) In further comparative tests, a preferred compound of this invention (Example 1) was tested in the field with prior art Compounds A-D. These tests were conducted under conditions reflecting herbicide application times generally favorable to all herbicides in the test. The timing of application of herbicides to transplant rice is very important, whether, as in some instances, prior to transplanting the rice; in other instances, at the time of transplanting or else after transplanting. Application times are conventionally referred to as "days before transplant" (DBT) or "days after transplant" ("DAT"). The field test data in Table IV was obtained from a test in which the herbicides were applied at the time of transplant, i.e., "0 DAT", with observations being made weekly up to six weeks after transplant ("WAT") beginning at two weeks after transplant; for illustrative and representative purposes, only the early, middle and late period observations, i.e., 2 WAT, 4 WAT and 6 WAT, are shown in Table IV. The data in Table IV is for rates of application common to all herbicides in the test, i.e., from 3.0 kg/ha (2.67 lb/A) down to 0.375 kg/ha (0.34 lb/A). All herbicides were applied at their actual or expected use rates, i.e., as granules containing 2.5% by weight herbicide for the compound of Example 1, Compounds B, C and D and 5.0% by weight for Compound A.
(§2) In Table V are presented field data showing the relative performance of the compound of Example 1 and Compounds A-D applied 9 DAT, with observations being made weekly from 3 WAT to 7 WAT; again, for illustrative and representative purposes, only the early, middle and late period observations are reported in Table V, the herbicide rates and concentrations of active ingredients the same as is shown in Table IV.

[2] = test system: Rice; assay: Field transplant rice test, applied 0 DAT, rice injury; conditions: Oryza sativa, 0 h, read-out: Percent Inhibition, Rice; for inhibition at 375 g/ha: 0.375 Kg/Ha; for inhibition at 750 g/ha: 0.75 Kg/Ha; for inhibition at 1500 g/ha: 1.5 Kg/Ha; for inhibition at 3000 g/ha: 3.0 Kg/Ha
Protocol: as §1

[3] = test system: Echinochloa crus-galli; assay: Field transplant rice test, applied 9 DAT, EC; conditions: for inhibition at 375 g/ha / inhibition at 750 g/ha / inhibition at 1500 g/ha / inhibition at 3000 g/ha: Echinochloa crus-galli, 216 h, read-out: Percent Inhibition, EC; for inhibition at 375 g/ha: 0.375 Kg/Ha; for inhibition at 750 g/ha: 0.75 Kg/Ha; for inhibition at 1500 g/ha: 1.5 Kg/Ha; for inhibition at 3000 g/ha: 3.0 Kg/Ha
Description: (§3) In the discussion of data below, occasional reference is made to herbicide application rates symbolized as "GR15 " and "GR85 "; these rates are given in kilograms per hectare (kg/ha) which are convertible into pounds per acre (lbs/A) by dividing the kg/ha rate by 1.12.
(§4) A further guide to the effectiveness of a chemical as a selective herbicide is the "selectivity factor" ("SF") for a herbicide in given crops and weeds. The selectivity factor is a measure of the relative degree of crop safety and weed injury and is expressed in terms of the GR15 /GR85 ratio, i.e., the GR15 rate for the crop divided by the GR85 rate for the weed, both rates in kg/ha (lb/A.)
(§5) The test data in Table III for all compounds was obtained under identical test conditions. The weeds used in the tests herein have the following abbreviations in the tables: Echinochloa crus-galli (EC), Monochloria vaginalis (MV), Cyperus Serotinus (CS), Eleocharis Kuroguwai (EK) and Sagittaria trifolia (ST).
as §1, §2

[4] = test system: Monochoria vaginalis; assay: Field transplant rice test, applied 9 DAT, MV; conditions: for inhibition at 375 g/ha / inhibition at 750 g/ha / inhibition at 1500 g/ha / inhibition at 3000 g/ha: Pontederia vaginalis, 216 h, read-out: Percent Inhibition, MV; for inhibition at 375 g/ha: 0.375 Kg/Ha; for inhibition at 750 g/ha: 0.75 Kg/Ha; for inhibition at 1500 g/ha: 1.5 Kg/Ha; for inhibition at 3000 g/ha: 3.0 Kg/Ha
Description: as §3, §4, §5, §1, §2

[5] = test system: Eleocharis kuroguwai; assay: Field transplant rice test, applied 9 DAT, EK; conditions: for inhibition at 375 g/ha / inhibition at 750 g/ha / inhibition at 1500 g/ha / inhibition at 3000 g/ha: Eleocharis kuroguwai, 216 h, read-out: Percent Inhibition, EK; for inhibition at 375 g/ha: 0.375 Kg/Ha; for inhibition at 750 g/ha: 0.75 Kg/Ha; for inhibition at 1500 g/ha: 1.5 Kg/Ha; for inhibition at 3000 g/ha: 3.0 Kg/Ha
Description: as §3, §4, §5, §1, §2

`CCCCOCCN(C(=O)CCl)c1c(CC)cccc1CC` [Compound B, 2',6'-diethyl-N-(n-butoxyethyl)-2-chloroacetanilide] was tested, and the inhibition at 375 g/ha ([1]; 3 WAT) was 12%, the inhibition at 375 g/ha ([1]; 5 WAT) was 0% and the inhibition at 375 g/ha ([1]; 7 WAT) was 5%. It also gave an inhibition at 750 g/ha ([1]; 3 WAT) of 12%, an inhibition at 750 g/ha ([1]; 5 WAT) of 5% and an inhibition at 750 g/ha ([1]; 7 WAT) of 3%. For the same molecule, the inhibition at 1500 g/ha ([1]; 3 WAT) was 10%, the inhibition at 1500 g/ha ([1]; 5 WAT) was 2% and the inhibition at 1500 g/ha ([1]; 7 WAT) was 5%. For the same molecule, the inhibition at 3000 g/ha ([1]; 3 WAT) was 12%, the inhibition at 3000 g/ha ([1]; 5 WAT) was 5% and the inhibition at 3000 g/ha ([1]; 7 WAT) was 2%. It also gave an inhibition at 375 g/ha ([2]; 2 WAT) of 7%, an inhibition at 375 g/ha ([2]; 4 WAT) of 3% and an inhibition at 375 g/ha ([2]; 6 WAT) of 7%. It also gave an inhibition at 750 g/ha ([2]; 2 WAT) of 3%, an inhibition at 750 g/ha ([2]; 4 WAT) of 2% and an inhibition at 750 g/ha ([2]; 6 WAT) of 3%. For the same molecule, the inhibition at 1500 g/ha ([2]; 2 WAT) was 10%, the inhibition at 1500 g/ha ([2]; 4 WAT) was 3% and the inhibition at 1500 g/ha ([2]; 6 WAT) was 0%. For the same molecule, the inhibition at 3000 g/ha ([2]; 2 WAT) was 7%, the inhibition at 3000 g/ha ([2]; 4 WAT) was 2% and the inhibition at 3000 g/ha ([2]; 6 WAT) was 3%. The inhibition at 375 g/ha ([3]; 3 WAT) was 57%, the inhibition at 375 g/ha ([3]; 5 WAT) was 55% and the inhibition at 375 g/ha ([3]; 7 WAT) was 47%. It also gave an inhibition at 750 g/ha ([3]; 3 WAT) of 68%, an inhibition at 750 g/ha ([3]; 5 WAT) of 53% and an inhibition at 750 g/ha ([3]; 7 WAT) of 50%. The inhibition at 1500 g/ha ([3]; 3 WAT) was 90%, the inhibition at 1500 g/ha ([3]; 5 WAT) was 80% and the inhibition at 1500 g/ha ([3]; 7 WAT) was 85%. It also gave an inhibition at 3000 g/ha ([3]; 3 WAT) of 95%, an inhibition at 3000 g/ha ([3]; 5 WAT) of 95% and an inhibition at 3000 g/ha ([3]; 7 WAT) of 92%. For the same molecule, the “selectivity factor (GR15/GR85), EC in transplant rice” value ([3]; between 3 WAT and 7 WAT) was 2, the inhibition at 375 g/ha ([4]; 3 WAT) was 100% and the inhibition at 375 g/ha ([4]; 5 WAT) was 95%. For the same molecule, the inhibition at 375 g/ha ([4]; 7 WAT) was 77%, the inhibition at 750 g/ha ([4]; 3 WAT) was 97% and the inhibition at 750 g/ha ([4]; 5 WAT) was 98%. It also gave an inhibition at 750 g/ha ([4]; 7 WAT) of 88%, an inhibition at 1500 g/ha ([4]; 3 WAT) of 98% and an inhibition at 1500 g/ha ([4]; 5 WAT) of 100%. It also gave an inhibition at 1500 g/ha ([4]; 7 WAT) of 100%, an inhibition at 3000 g/ha ([4]; 3 WAT) of 100% and an inhibition at 3000 g/ha ([4]; 5 WAT) of 100%. The inhibition at 3000 g/ha ([4]; 7 WAT) was 97%, the “selectivity factor (GR15/GR85), MV in transplant rice” value ([4]; between 3 WAT and 7 WAT) was 8 and the “selectivity factor (GR15/GR85), EK in transplant rice” value ([5]; 3 WAT) was “non-selective”. It also gave an inhibition at 375 g/ha ([5]; 3 WAT) of 27%, an inhibition at 375 g/ha ([5]; 5 WAT) of 3% and an inhibition at 375 g/ha ([5]; 7 WAT) of 0%. The inhibition at 750 g/ha ([5]; 3 WAT) was 28%, the inhibition at 750 g/ha ([5]; 5 WAT) was 5% and the inhibition at 750 g/ha ([5]; 7 WAT) was 0%. It also gave an inhibition at 1500 g/ha ([5]; 3 WAT) of 42%, an inhibition at 1500 g/ha ([5]; 5 WAT) of 32% and an inhibition at 1500 g/ha ([5]; 7 WAT) of 0%. For the same molecule, the inhibition at 3000 g/ha ([5]; 3 WAT) was 55%, the inhibition at 3000 g/ha ([5]; 5 WAT) was 43% and the inhibition at 3000 g/ha ([5]; 7 WAT) was 18%.
